Holding throughout (assay): DTP human tumour cell line panel, 48 h
In assay [1] the test system is ACHN renal.
The test system of assay [2] is DMS 114 small cell lung.
The subject of assay [3] is HCC-2998 colon.
The test system of assay [4] is HCT-15 colon.
Assay [5] concerns M14 melanoma.
The subject of assay [6] is OVCAR-3 ovarian.
Assay [7] relates to OVCAR-8 ovarian.
Assay [8] concerns SK-MEL-28 melanoma.
Assay [9] deals with TK-10 renal.
Assay [10] deals with LXFL 529 NSCLC.

Our source for the GI50 and TGI values is PubChem BioAssay (NCI).

Molecules are shown by their SMILES. “And” between values parts separate entries of the source, which are not always exact repeats. Identical values can stand only once.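 Five compound concentrations were applied to cells in 96-well plates for 48 hours; endpoints were derived by simple linear interpolation of the resulting dose-response curve. GI50: concentration for 50% inhibition of growth. The concentration for full growth arrest is given as TGI.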 A value given as a limit tells only on which side of the number the result lay.

Take `COC(=O)[C@@]12OC[C@]34[C@H]([C@@H](O)[C@@H]1O)[C@@]1(C)CC(=O)C(O)=C(C)[C@@H]1C[C@H]3OC(=O)[C@H](OC(=O)/C=C(\C)C(C)C)[C@@H]24`: the GI50 in assay [1] was 0.02 µM; in assay [2], 35.4 pM; in assay [9], 0.0235 µM. The total growth inhibition concentration (TGI) in assay [1] was 0.026 µM and 0.0124 µM and 0.0245 µM; in assay [2] it was 0.000286 µM; in assay [3], 0.00342 µM; in assay [4], 0.0588 µM and 0.0562 µM and 0.055 µM; in [5] it was 0.0109 µM; in assay [6], 0.0151 µM and 0.0911 µM. Also, the TGI in assay [7] was 0.0406 µM and 0.0561 µM; in assay [8], 0.0142 µM and < 0.0339 µM and 0.0317 µM; in [9] it was 0.0719 µM and 0.0333 µM.
As to `CN(C)CCCN1c2ccccc2Sc2ccc(C(F)(F)F)cc21`, the GI50 was 1.81 µM in assay [1]; 1.46 µM and 10.5 µM and 4.5 µM in assay [3]; 1.92 µM in assay [4]; 1.73 µM in [7]; 1.68 µM in assay [8]; 1.77 µM in [9]. In addition, the TGI is 3.85 µM and 28.8 µM and 28.2 µM in [1]; 34 µM in assay [2]; 2.89 µM and 23.8 µM and 15.8 µM in assay [3]; 3.73 µM and 31 µM and 31.1 µM in assay [4]; more than 100 µM in assay [10]; 3.33 µM and 30 µM in [7]. Further, in assay [9], the TGI was 3.24 µM and 28.8 µM and 31.6 µM.
In the case of `C[N+](C)(C)CC1CCC(C[N+](C)(C)C)C1=NO` (stereo not drawn), the TGI in assay [1], in assay [4], in [10], in assay [5], in [6] and in [7] was more than 100 µM throughout. The compound also came in with a TGI in assay [8] of more than 100 µM.
As for `Nc1ncn([C@H]2CC(O)[C@@H](CO)S2)c(=O)n1` (stereo partly drawn), the concentration for 50% growth inhibition (GI50) in assay [1] is 0.266 µM; in assay [3], 2.44 µM; in assay [4] it was 1.71 µM; in assay [5], 2.62 µM; in assay [6] it was 6.08 µM; in assay [7] it was 0.42 µM. In addition, the GI50 in assay [8] is 2.05 µM; in [9], 36.3 µM. The total growth inhibition concentration (TGI) in [1], in [3], in assay [4], in assay [5], in assay [6] and in assay [7] was more than 100 µM each time. In addition, the TGI in assay [8] and in [9] was more than 100 µM each time.
For the compound `CC(=O)c1cc2c(N)c(C(=O)Nc3cccc4ccccc34)sc2nc1C`, the GI50 in [1] is 3.61 µM; in assay [3] it was 2.29 µM; in assay [4] it was 1.71 µM; in assay [5], 0.745 µM; in assay [6] it was 1.67 µM; in assay [7] it was 2.14 µM. Moreover, the GI50 is 4.07 µM in assay [8] and 3.77 µM in [9]. For the same compound, the TGI in assay [1] is more than 50 µM; in assay [3], more than 50 µM; in assay [4], more than 50 µM; in [5], 3.21 µM; in assay [6], 11.4 µM; in assay [7], more than 50 µM. Further, the concentration for total growth inhibition (TGI) in assay [8] and in assay [9] was more than 50 µM in each case.
Take `CC(C)=C[C@@H]1C[C@H](C)[C@H]2CC[C@H](C)c3c(O)c(OC4OC(C)C(O)C(O)C4O)c(C)c1c32` (stereo partly drawn): the GI50 in assay [1] was 14.1 µM; in assay [3], 0.734 µM; in [4], 14.5 µM; in [5], 11.5 µM; in assay [6], 1.93 µM; in assay [7], 14.6 µM. Also, the results for the GI50 in assay [8] and in assay [9] were 18.1 µM and 16.3 µM, respectively. The TGI in [1] came out at 27.1 µM; in assay [3], 3.97 µM; in assay [4], 27.6 µM; in assay [5], 24.9 µM; in [6] it was 8.43 µM; in assay [7] it was 28 µM. The concentration for total growth inhibition (TGI) in assay [8] was 32.1 µM; in assay [9], 30.2 µM.
`CCCCCCCCCCCCCCCCCc1nc(Cl)nc(Cl)c1Cl`: the TGI in assay [1], in [3], in assay [4], in assay [5], in assay [6] and in [7] was more than 100 µM in each case. Moreover, the total growth inhibition concentration (TGI) in assay [8] and in assay [9] was more than 100 µM in each case.
Consider `O=S(=O)(c1ccccc1)N1CCCC(c2ccccc2)CC1` (stereo not drawn), for which the TGI was more than 100 µM in assay [1]; 61.3 µM in assay [3]; more than 100 µM in assay [4]; more than 100 µM in [5]; more than 100 µM in assay [6]; more than 100 µM in assay [7]. Further, the total growth inhibition concentration (TGI) in [8] and in [9] was more than 100 µM in each case.
Take `COc1cc(N=Nc2cc(Cc3ccc(N(C)C)cc3)c(N)cc2N(C)C)c2ncccc2c1`: the concentration for 50% growth inhibition (GI50) in [1] is 0.233 µM; in assay [3], 1.16 µM; in assay [4] it was 0.195 µM; in assay [5], 0.34 µM; in assay [6] it was 0.0406 µM; in assay [7], 0.387 µM. For the same compound, the GI50 was 0.745 µM in [8] and 1.62 µM in assay [9]. For the same compound, the TGI came out at 1.69 µM in assay [1]; 2.66 µM in [3]; 1.99 µM in assay [4]; 1.58 µM in assay [5]; 1.08 µM in assay [6]; 2.19 µM in assay [7]. For the same compound, the TGI in assay [8] was found to be 2.2 µM; in [9], 4.36 µM.
In the case of `CCCCCCCCCCCC/C=C\CC[C@@H](O)[C@H](O)CC[C@H](O)[C@@H]1CC[C@@H](CCCCCCCC2=C[C@H](C)OC2=O)O1`, the GI50 in [1] is 4.35 µM; in assay [4], 8.86 µM; in assay [6], 0.434 µM; in [7] it was 8.16 µM; in assay [8] it was 20.2 µM; in [9] it was 10 µM. The concentration for total growth inhibition (TGI) is 4.71 µM and 26.3 µM in assay [1]; 37.1 µM in assay [3]; 33.8 µM in [4]; 46.8 µM in assay [5]; 6.64 µM and 18.7 µM in assay [6]; 38 µM in [7]. The concentration for total growth inhibition (TGI) in assay [8] came to 56.3 µM; in [9], 28.6 µM.
For the compound `COC(=O)c1c(C)nc(C)c2c1C(=O)C(Br)=C(NCc1ccccc1)C2=O`, the GI50 in assay [1] was 3.08 µM; in assay [3], 3.4 µM; in assay [4], 2.76 µM; in assay [5], 2.06 µM; in assay [6] it was 2.27 µM; in assay [7] it was 2.51 µM. The GI50 is 5.79 µM in [8] and 10.1 µM in [9]. The TGI was determined as 9.97 µM in assay [1]; 10.5 µM in assay [3]; 8.26 µM in [4]; 4.81 µM in assay [5]; 6.16 µM in [6]; 7.24 µM in [7]. In addition, the TGI in assay [8] was 17.5 µM; in assay [9], 21.9 µM.
For `COc1cc2ncn(-c3cc(OCc4ccccc4C(F)(F)F)c(C(N)=O)s3)c2cc1OC`, the GI50 in assay [1] is 2.79 µM; in assay [3], 0.276 µM; in assay [4] it was 0.211 µM; in [5], 0.141 µM; in [6], 0.0838 µM; in [7], 0.168 µM. For the same compound, the figures for the GI50 in assay [8] and in assay [9] were 1.5 µM and 3.29 µM, respectively. The TGI in assay [1] was more than 25 µM; in assay [3] it was more than 25 µM; in assay [4] it was more than 25 µM; in assay [5], more than 25 µM; in assay [6] it was 0.794 µM; in assay [7], more than 19.9 µM. Also, the concentration for total growth inhibition (TGI) is more than 25 µM in assay [8] and 12.8 µM in assay [9].
Consider `COC1C(OC(=O)c2ccc(C)[nH]2)C(O)C(Oc2ccc3c(O)c(NC(=O)c4ccc(O)c(CC=C(C)C)c4)c(=O)oc3c2Cl)OC1(C)C` (stereo not drawn), for which the concentration for total growth inhibition (TGI) amounted to 77.5 µM in [1]; 33.2 µM in assay [3]; 38.1 µM in assay [4]; 32.2 µM in assay [5]; 43.6 µM in assay [6]; 52 µM in assay [7]. Further, the figures for the total growth inhibition concentration (TGI) in [8] and in [9] were 32.9 µM and more than 100 µM, respectively.
Consider `Cc1cc(NC(=O)NCc2ccc(N3C(N)=NC(N)=NC3(C)C)cc2)ccc1S(=O)(=O)F`, for which the GI50 was 46.2 µM in assay [1]; 1.96 µM in [3]; 11.2 µM in assay [4]; 1.51 µM in [5]; 8.4 µM in assay [6]; 6.76 µM in [7]. Also, the figures for the GI50 in assay [8] and in assay [9] were 17.7 µM and 5.5 µM, respectively. In addition, the TGI in assay [1] is more than 100 µM; in [3], more than 100 µM; in assay [4] it was more than 100 µM; in [5], more than 100 µM; in assay [6], more than 81.9 µM; in [7], more than 100 µM. The total growth inhibition concentration (TGI) in assay [8] and in [9] was more than 100 µM each time.
Regarding `CNC(=O)CCN1CCN(CC/C=C2\c3ccccc3Sc3ccc(Cl)cc32)CC1`, the GI50 in [1] is 13.8 µM; in assay [3], 7.94 µM; in assay [4], 6.57 µM; in assay [5] it was 2.1 µM; in [6], 11.8 µM; in assay [7] it was 14.4 µM. For the same compound, the GI50 is 1.76 µM in assay [8] and 14 µM in assay [9]. The TGI was found to be 27.1 µM in assay [1]; 24.2 µM in [3]; 20.6 µM in assay [4]; 4.4 µM in assay [5]; 27 µM in [6]; 32.2 µM in assay [7]. The TGI in assay [8] turned out to be 3.36 µM; in [9], 29.2 µM.

As a reminder, the GI50 is the concentration giving 50% growth inhibition. As a reminder, the TGI is the concentration giving total growth inhibition. Higher therefore signals lower sensitivity of the cells.
